Experimental data: US6441049B2, “Method of treating neurodegenerative disorders via inhibition of amyloid beta peptide binding” (Ortho-McNeil Pharmaceutical, Inc., priority 1998, dated 2002)
Read-outs that look alike come from different tables or passages of the source.

How the values were obtained:
Aβ aggregation = biological target: T1, Aβ aggregation (Homo sapiens, UniProt P05067); experiment: Aβ aggregation assay on Synthaloid plates with labelled Aβ1-40; type: biochemical
T1 construct: 100 nM of fluo-Aβ1-40 in 100 μl of each well of the 96-well Synthaloid plate; purchased Amersham Pharmacia Biotech (125I-Aβ1-40); Advanced Bioconcepts (fluo-Aβ1-40)
T1 sequence (P05067 672-711 limits assumed): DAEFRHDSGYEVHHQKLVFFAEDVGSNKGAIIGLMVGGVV
Protocol: Aβs are known to form aggregates leading to the formation of amyloid plaques that are characteristic of Alzheimer's disease. […] We have validated this aggregation assay using both ^125I-Aβ1-40 and fluo-Aβ1-40 in a buffer containing 50 mM HEPES, pH 7.4, 0.1% BSA, 10% FCS and protease inhibitors. About 500 pM of ^125I-Aβ1-40 or 100 nM of fluo-Aβ1-40 in 100 μl of each well of the 96-well Synthaloid plate was allowed to incubate for 2.5 hr at room temperature in the presence or absence of inhibitors. At the end of the incubation, unbound protein in the wells was removed by three washes using the above buffer. The amount of bound protein which represented Aβ aggregation was measured either by scintillation counting or fluorescence measurements.

[1] = biological target: 206-216 stretch of the human α7 nAChR (Homo sapiens, UniProt P36544); conditions: inhibitors 1 uM to 10 uM
Protocol: A 2-5 ug quantity of the 11 amino acid peptide comprised of the 206-216 stretch of the α7 nAChR (N-Ac, C(O)NH2) are added to a 96-well microtiter plate in 50 mL 10 mM HEPES, pH 7.4, or any buffer 50 ul. ^125I-β-amyloid1-40 (2000 Ci/mmol, 50 pM) was added to the wells in the presence and absence of inhibitors (1 uM to 10 uM) dissolved in 1 uL of 30% or 100% DMSO. Unbound ligands were removed and bound radioactivity was measured using a Microbeta liquid scintillation counter.

[2] = test system: acetylcholine release from guinea pig hippocampus synaptosomes; experiment: K+-evoked 3H-acetylcholine release from synaptosomes, effect of Aβs; type: cell-based; conditions: for IC50: read-out: ACh Release (IC50)
Protocol: Synaptosomes from guinea pig hippocampus were incubated with 0.1 μM ^3H-choline and then subjected to repeated washes to remove unincorporated ^3H-choline. The synaptosomes were treated with 65 mM K^+ for 30 seconds to elicit 3H-acetylcholine release.

[3] = 10 μM, read-out: % Inh Agg. (conc μM)

| Compound | % Inh Agg. (conc μM) (Aβ aggregation; 10 μM) | % α7 nAChR 206-216 Binding ([1]; 125I-β-amyloid1-40 50 pM) | % ACh Release at 10 μM [2] | also measured |
| --- | --- | --- | --- | --- |
| C#CCN(CCC)C1Cc2c(O)ccc(O)c2CC1C (racemic) [Compound 34] | 69 (10) % |  |  |  |
| CCCN(Cc1ccc(I)cc1)C1Cc2c(OC)ccc(OC)c2CC1C (racemic) [Compound 35] | 38 (10) % |  |  |  |
| CCCN(CCCSC)C1Cc2c(O)ccc(O)c2CC1C (racemic) [Compound 28] | 50-90 (10) % | 34% |  |  |
| COC(=O)[C@H](C)NC1Cc2c(OC)ccc(OC)c2CC1C (stereo partly drawn) [Compound 48, 5,8-Dimethoxy-2-[N-(L-alanylmethyl ester)]-3-methyl-1,2,3,4-tetrahydronaphthalene] | <30 (10) % | 2% | 0% |  |
| CCCN(CCCc1ccccc1)C1Cc2c(O)ccc(O)c2CC1C (racemic) [Compound 20] |  |  |  | % Inh Agg. (conc μM) (Aβ aggregation; 5 μM): 39 (5) % |
| CCCN(Cc1cccs1)C1Cc2c(OC)ccc(OC)c2CC1C (racemic) [Compound 29] | 12 (10) % |  |  |  |
| CCCN(CC1CCCCC1)C1Cc2c(OC)ccc(OC)c2CC1C (racemic) [Compound 21] |  |  |  | % Inh Agg. (conc μM) (Aβ aggregation; 5 μM): 20 (5) % |
| CCCN(CCC)C1Cc2c(O)ccc(OP(=O)(c3ccccc3)c3ccccc3)c2CC1C (stereo not shown) [Compound 58] | <30 (10) % | 42% | 18% |  |
| CC1Cc2c(O)ccc(O)c2CC1N1CCOCC1 (stereo not drawn) [Compound 24, 5,8-Dihydroxy-cis-2-(1-morpholinyl)-3-methyl-1,2,3,4-tetrahydronaphthalene] |  | 43% |  |  |
| CCCN(CCC)C1Cc2c(O)ccc(OC)c2CC1C (stereo not drawn) [Compound 46, 5-Methoxy-8-hydroxy-trans-2-di(N-propylamino)-3-methyl-1,2,3,4-tetrahydronaphthalene] |  |  | 0% | inhibition at 10 µM (Aβ aggregation; [3]): 50 to 90%; % α7 nAChR 206-216 Binding ([1]; […]): 18% |
| CCCN(CCC)C1Cc2c(OC)ccc(OC)c2CC1C (single isomer, unassigned) [Compound 18] | 50-90 (10) % |  | 70% | IC50 [2]: 10000 nM |
| CCCN(CC1CCCCC1)C1Cc2c(O)ccc(O)c2CC1C (racemic) [Compound 22] |  |  |  | % Inh Agg. (conc μM) (Aβ aggregation; 50 μM): 38 (50) % |
| CCCN(Cc1ccc(C)cc1)C1Cc2c(OC)ccc(OC)c2CC1C (racemic) [Compound 41] | <30(10) % | 19% | 14% |  |
| C#CCN(CCC)C1Cc2c(O)ccc(OP(=O)(c3ccccc3)c3ccccc3)c2CC1C (stereo not shown) [Compound 56] | <30 (10) % | 78% | 8% |  |
| CCCN(Cc1ccccc1Cl)C1Cc2c(O)ccc(O)c2CC1C (racemic) [Compound 40] | 75 (10) % |  |  |  |
| CCCN(Cc1ccccc1Cl)C1Cc2c(OC)ccc(OC)c2CC1C (racemic) [Compound 39] | 85 (10) % |  |  |  |
| CCCN(CCC)C1Cc2c(OC)ccc(OC)c2CC1C (single isomer, unassigned) [Compound 17] | >90 (10) % |  | 63% | IC50 [2]: 1000 nM |
| COc1ccc(OC)c2c1C[C@H](C)[C@H](Nc1ccc(OCCN3CCCCC3)cc1)C2 (relative stereo) [Compound 60, 5,8-Dimethoxy-cis-2-[N-(4-(2-(1-piperidinyl)ethoxy)phenyl)]amino-3-methyl-1,2,3,4-tetrahydronaphthalene] |  | 0% | 24% | % Inh Agg. (result in words) (Aβ aggregation; concentration not given): very active |
| 5,8-bis(Diphenylphosphinoyl)-3-methyl-1,2,3,4-tetrahydronaphthalene [Compound 59] | <30 (10) % |  | 25% | % α7 nAChR 206-216 Binding ([1]; […]): 72% |
| CCCN(C)C1Cc2c(OC)ccc(OC)c2CC1C (stereo not shown) [Compound 52] |  |  | 0% | inhibition at 10 µM (Aβ aggregation; [3]): 60%; % α7 nAChR 206-216 Binding ([1]; […]): 0% |
| C#CCN(CCC)C1Cc2c(O)ccc(O)c2CC1C (racemic) [Compound 32] | 69 (10) % |  |  |  |

| Compound | % Inh Agg. (conc μM) (Aβ aggregation; 10 μM) | % α7 nAChR 206-216 Binding ([1]; 125I-β-amyloid1-40 50 pM) | % ACh Release at 10 μM [2] | also measured |
| --- | --- | --- | --- | --- |
| CCCN(CCCc1ccccc1)C1Cc2c(OC)ccc(OC)c2CC1C (racemic) [Compound 19] |  |  |  | % Inh Agg. (conc μM) (Aβ aggregation; 5 μM): 30 (5) % |
| CCCN(CCC(C)CCC=C(C)C)C1Cc2c(OC)ccc(OC)c2CC1C (stereo not shown) [Compound 54] | 50-90 (10) % | 0% | 0% |  |
| CCCN(CCC)C1Cc2c(O)ccc(O)c2CC1C (stereo not shown) [Compound 15] |  |  |  | IC50 [2]: 250 nM; inhibition at 10 µM (Aβ aggregation; [3]): 50 to 90%; % α7 nAChR 206-216 Binding ([1]; […]): 85% |
| CCCN(Cc1ccc(I)cc1)C1Cc2c(O)ccc(O)c2CC1C (racemic) [Compound 36] | <30 (10) % |  |  |  |
| C#CCN(CCC)C1Cc2c(OC)ccc(OC)c2CC1C (racemic) [Compound 31, 5,8-Dimethoxy-cis and trans-2-(N-propyl-N-propargyl)amino-3-methyl-1,2,3,4-tetrahydronaphthalene] | 34 (10) % |  |  |  |
| COc1ccc(OC)c2c1C[C@@H](N1CCOCC1)[C@@H](C)C2 (relative stereo) [Compound 23, 5,8-Dimethoxy-cis-2-(1-morpholinyl)-3-methyl-1,2,3,4-tetrahydronaphthalene] |  | 54% |  |  |
| CCCN(CCC)C1Cc2c(OC(=O)C(C)(C)C)ccc(O)c2CC1C (stereo not shown) [Compound 51] | 30-50 (10) % | 0% | 54% |  |
| CCCN(CCC)C1Cc2c(OC)ccc(OC)c2CC1C (stereo not drawn) [Compound 8, 5,8-Dimethoxy-trans-2-di(N-propylamino)-3-methyl-1,2,3,4-tetrahydronaphthalene] |  |  |  | IC50 ([2]; Cavia porcellus): 700 nM; inhibition at 10 µM (Aβ aggregation; [3]): 50 to 90% |
| CCCN(C)C1Cc2c(O)ccc(O)c2CC1C (stereo not shown) [Compound 53] |  |  | 18% | inhibition at 10 µM (Aβ aggregation; [3]): 50 to 90%; % α7 nAChR 206-216 Binding ([1]; […]): 0% |
| CCCN(CCC(C)CCC=C(C)C)C1Cc2c(O)ccc(O)c2CC1C (stereo not shown) [Compound 55] | 50-90 (10) % | 0% | 15% |  |
| CCCN(CCC)C1Cc2c(O)ccc(O)c2CC1C (stereo not shown) [Compound 16] | 50-90 (10) % |  |  | IC50 [2]: 10000 nM; % α7 nAChR 206-216 Binding ([1]; […]): 44% |
| CCCN(Cc1ccc(O)cc1)C1Cc2c(O)ccc(O)c2CC1C (racemic) [Compound 38] | <30 (10) % |  |  |  |
| CCCN(Cc1ccccc1)C1Cc2c(O)ccc(O)c2CC1C (racemic) [Compound 26] | <30 (10) % | 64% |  |  |
| CCCN(CCC)C1Cc2c(O)ccc(OCC=C(C)C)c2CC1C (racemic) [Compound 43] | 50-90 (10) % | 10% | 0% |  |
| CCCN(CCC)C1Cc2c(OCC=C(C)C)ccc(O)c2CC1C (racemic) [Compound 44] | 50-90 (10) % | 23% | 0% |  |
| CCCN(Cc1ccccc1)C1Cc2c(OC)ccc(OC)c2CC1C (racemic) [Compound 25] |  | 48% |  |  |
| CCCN(CCC)C1Cc2c(OC)ccc(O)c2CC1C (stereo not drawn) [Compound 45, 5-Hydroxy-8-methoxy-trans-2-di(N-propylamino)-3-methyl-1,2,3,4-tetrahydronaphthalene] |  |  | 78% | inhibition at 78 µM (Aβ aggregation; 78 μM as printed, read-out: % Inh Agg. (conc μM)): 30 to 50% |
| CCCCOc1ccc(CN(CCC)C2Cc3c(OC)ccc(OC)c3CC2C)cc1 (racemic) [Compound 37] | <30 (10) % |  |  |  |
| CCCNC1Cc2c(OC)ccc(OC)c2CC1C (stereo not shown) [Compound 7, 5,8-Dimethoxy-2-N-propylamino-3-methyl-1,2,3,4-tetrahydronaphthalene] |  |  |  | inhibition at 100 µM (Aβ aggregation; 100 μM, read-out: % Inh Agg. (conc μM)): 50% |
| CCCN(Cc1cccs1)C1Cc2c(O)ccc(O)c2CC1C (racemic) [Compound 30] |  |  |  | % Inh Agg. (conc μM) (Aβ aggregation; 5 μM): 38 (5) % |
| CCCN(Cc1ccc(C)cc1)C1Cc2c(O)ccc(O)c2CC1C (racemic) [Compound 42] | 60 (10) % |  |  |  |
